From ChEMBL document CHEMBL1201862, “PubChem BioAssay data set” (2004)
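Exposure lasted 48 hours, with cells grown in 96-well plates and compounds tested at five concentrations. Here, GI50 denotes the concentration required for 50% inhibition of growth.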 The source made the active and inactive calls. Rule as the data show it: active = GI50 up to about 1.1 µM and inactive = higher.

Experiments:
Test in all cases: growth of human tumour cells (NCI), 48 h
[1] = test system: A498
[2] = test system: ACHN
[3] = test system: CAKI-1
[4] = test system: HCC 2998
[5] = test system: HOP-62
[6] = test system: HOP-92
[7] = test system: Hs-578T
[8] = test system: LOX IMVI
[9] = test system: MDA-MB-231
[10] = test system: Malme-3M
[11] = test system: OVCAR-3
[12] = test system: PC-3
[13] = test system: RXF 393
[14] = test system: SF-268
[15] = test system: SF-295
[16] = test system: SK-MEL-28
[17] = test system: SK-MEL-5
[18] = test system: SN12C
[19] = test system: SW-620
[20] = test system: U-251

| Compound | GI50 [1] | GI50 [2] | GI50 [3] | GI50 [4] | GI50 [5] | GI50 [6] | GI50 [7] | GI50 [8] | GI50 [9] | GI50 [10] | GI50 [11] | GI50 [12] | GI50 [13] | GI50 [14] | GI50 [15] | GI50 [16] | GI50 [17] | GI50 [18] | GI50 [19] | GI50 [20] |
| --- | --- | --- | --- | --- | --- | --- | --- | --- | --- | --- | --- | --- | --- | --- | --- | --- | --- | --- | --- | --- |
| COC1=CC(=O)C(C2CC(=O)c3c(O)cc(O)cc3O2)=CC1=O (stereo unspecified) | 29.9 µM (inactive) | 15.9 µM (inactive) | 18 µM (inactive) | 16.8 µM (inactive) | 17.1 µM (inactive) | 7.55 µM (inactive) | 33.5 µM (inactive) | 16.3 µM (inactive) | 12.2 µM (inactive) | 19.1 µM (inactive) | 18.5 µM (inactive) | 16.5 µM (inactive) | 19.1 µM (inactive) | 20.7 µM (inactive) | 19.2 µM (inactive) | 16.9 µM (inactive) | 16.8 µM (inactive) | 19.8 µM (inactive) | 20.2 µM (inactive) | 18.5 µM (inactive) |
| CCc1c(CNc2ccc(C(=O)NC(CC(=O)O)C(=O)O)cc2)ccc2nc(N)nc(N)c12 (stereo unspecified) | 2.03 µM (inactive) | < 0.01 µM (active) | < 0.0198 µM (active) | 0.0465 µM (active) | 0.267 µM (active) | 6.44 µM (inactive) | > 1000 µM (inactive) | < 0.0162 µM (active) | > 100 µM (inactive) | 0.953 µM (active) | 10.1 µM (inactive) | 305 µM (inactive) | > 4.65 µM (inactive) | < 0.0198 µM (active) | 0.0371 µM (active) | 10.2 µM (inactive) | < 0.0346 µM (active) | < 0.0288 µM (active) | < 0.0138 µM (active) |  |
| CN(Cc1c2ccccc2cc2ccccc12)S(=O)(=O)c1ccc(-c2c3nc(c(-c4ccc(S(=O)(=O)N(C)Cc5c6ccccc6cc6ccccc56)cc4)c4ccc([nH]4)c(-c4ccc(S(=O)(=O)N(C)Cc5c6ccccc6cc6ccccc56)cc4)c4nc(c(-c5ccc(S(=O)(=O)N(C)Cc6c7ccccc7cc7ccccc67)cc5)c5ccc2[nH]5)C=C4)C=C3)cc1 | > 100 µM (inactive) | > 100 µM (inactive) | > 100 µM (inactive) | > 100 µM (inactive) | 30.3 µM (inactive) | 29.2 µM (inactive) | 57.8 µM (inactive) | > 100 µM (inactive) | > 100 µM (inactive) | > 100 µM (inactive) | > 100 µM (inactive) | > 100 µM (inactive) | 42.1 µM (inactive) | > 100 µM (inactive) | 63.7 µM (inactive) | > 100 µM (inactive) | > 100 µM (inactive) | > 100 µM (inactive) | > 100 µM (inactive) | 47.2 µM (inactive) |
| CC[C@@H]1CC[C@@H]2[C@H](CC[C@]3(C)[C@@H](OS(=O)(=O)c4ccc(C)cc4)CC[C@@H]23)[C@H]1CO | > 100 µM (inactive) | > 100 µM (inactive) | > 100 µM (inactive) | > 100 µM (inactive) | > 100 µM (inactive) | > 100 µM (inactive) | > 100 µM (inactive) | 23.8 µM (inactive) | > 100 µM (inactive) | > 100 µM (inactive) | > 100 µM (inactive) | 82 µM (inactive) | > 100 µM (inactive) | > 100 µM (inactive) | > 100 µM (inactive) | > 100 µM (inactive) | 42.6 µM (inactive) | 78.5 µM (inactive) | > 100 µM (inactive) | > 100 µM (inactive) |
| COC(=O)C1(Cc2ccc3c(c2)CCC3)Cc2ccc3c(c2C1)CCC3 (stereo unspecified) | 22.3 µM (inactive) | 24.1 µM (inactive) | 21.6 µM (inactive) | 34.5 µM (inactive) | 30.1 µM (inactive) | 18.7 µM (inactive) | 17.4 µM (inactive) | 16.8 µM (inactive) | 15.6 µM (inactive) | 16.5 µM (inactive) | 20.3 µM (inactive) | 16.9 µM (inactive) | 24 µM (inactive) | 44.4 µM (inactive) | 20.7 µM (inactive) | 23.9 µM (inactive) | 16.6 µM (inactive) | 17.5 µM (inactive) | 25.2 µM (inactive) | 17.3 µM (inactive) |
| CCC(CN(C)C)C(=O)c1ccco1 (stereo unspecified) | > 100 µM (inactive) | > 100 µM (inactive) | > 100 µM (inactive) | > 100 µM (inactive) | > 100 µM (inactive) | 23 µM (inactive) | 98.6 µM (inactive) | > 100 µM (inactive) | > 100 µM (inactive) | 41.4 µM (inactive) | > 100 µM (inactive) | > 100 µM (inactive) | > 100 µM (inactive) | 54.8 µM (inactive) | > 100 µM (inactive) | > 100 µM (inactive) |  | > 100 µM (inactive) | > 100 µM (inactive) | > 100 µM (inactive) |
| Clc1cc(Cl)cc(/C=N/C23CC4CC(CC(C4)C2)C3)c1 | > 10 µM (inactive) | > 10 µM (inactive) | > 10 µM (inactive) | > 10 µM (inactive) | > 10 µM (inactive) | > 10 µM (inactive) | > 10 µM (inactive) | > 10 µM (inactive) | > 10 µM (inactive) | > 10 µM (inactive) | > 10 µM (inactive) | > 10 µM (inactive) | > 10 µM (inactive) | > 10 µM (inactive) | > 10 µM (inactive) | > 10 µM (inactive) | > 10 µM (inactive) | > 10 µM (inactive) | > 10 µM (inactive) | > 10 µM (inactive) |
| CC(=O)ONC(C(=O)C(C)(C)C)C(=O)C(C)(C)C | > 100 µM (inactive) | > 100 µM (inactive) | > 100 µM (inactive) | > 100 µM (inactive) | > 100 µM (inactive) | > 100 µM (inactive) | > 100 µM (inactive) | > 100 µM (inactive) | > 100 µM (inactive) | > 100 µM (inactive) | > 100 µM (inactive) | > 100 µM (inactive) | > 100 µM (inactive) | > 100 µM (inactive) | > 100 µM (inactive) | > 100 µM (inactive) | > 100 µM (inactive) | > 100 µM (inactive) | > 100 µM (inactive) | > 100 µM (inactive) |
| CCOc1ccccc1NC(=O)C(=O)C(/C(=N/N)C(=O)OC)c1nc2ccc([N+](=O)[O-])cc2nc1O (stereo unspecified) | > 100 µM (inactive) |  | > 100 µM (inactive) | > 100 µM (inactive) | > 100 µM (inactive) | 46 µM (inactive) | > 100 µM (inactive) | > 100 µM (inactive) | > 100 µM (inactive) | > 100 µM (inactive) | > 100 µM (inactive) | > 100 µM (inactive) | > 100 µM (inactive) | > 100 µM (inactive) | > 100 µM (inactive) | > 100 µM (inactive) | > 100 µM (inactive) | > 100 µM (inactive) | > 100 µM (inactive) | > 100 µM (inactive) |
| O=C(O)c1ccccc1C(=O)Nc1cc2c(cc1Br)-c1ccccc1C2=O | > 100 µM (inactive) | > 100 µM (inactive) | > 100 µM (inactive) | 23.2 µM (inactive) | > 100 µM (inactive) | 48.1 µM (inactive) | 91.2 µM (inactive) | 81.1 µM (inactive) | > 100 µM (inactive) | > 100 µM (inactive) | 40.6 µM (inactive) | > 100 µM (inactive) | 48 µM (inactive) | > 100 µM (inactive) |  | 6.61 µM (inactive) | > 100 µM (inactive) | > 100 µM (inactive) | > 100 µM (inactive) | 87.5 µM (inactive) |
